In patent publication EP3771487A1, “METHOD FOR THE SIMULTANEOUS DETERMINATION OF VARIOUS ANALYTES IN AN ENVIRONMENTAL SAMPLE AND / OR AN AGRICULTURAL RAW MATERIAL BASED ON CORE-SHELL MICROPARTICLES” (Bundesrepublik Deutschland, vertreten durch den …, priority 2019, dated 2021):

Experiments:
[1] = tested on: anti-ILA Antiserum; conditions: cited from earlier work
[2] = tested on: anti-CBZ mAb; assay: SAFIA (indirect competitive particle-based suspension array fluorescence immunoassay), CBZ channel; type: binding, Maus; conditions: for Molare Kreuzreaktivität CBZ (SAFIA): method of Abraham, anti-CBZ antibody
Protocol: (§1) Indirekt kompetitiver partikelbasierter Immunoassay: Alle Immunoassays wurden in schwarzen, nicht-bindenden Mikrotiterplatten mit flachem Boden (Greiner Bio-One) durchgeführt. Zum Verdünnen der Suspension der Mikropartikel (Beads) und der biochemischen Reagenzien wurde TRIS-gepufferte Salzlösung (10 mM Tris (hydroxymethyl)aminomethan, 150mM NaCl, pH = 8,5) verwendet. Zunächst wurden 50 µL der Probe oder des Standards und 50 µl einer Mischung der primären (prim.) Antikörper anti-CAF (272 µg/L), anti-CBZ (350 µg/L), anti-DCF (20 µg/L), anti-OTA (50 ng/L), anti-ZON (250µg/L) und anti-ILA (Verdünnung des (polyklonalen) Antiserums: 1:10.000) während 5 Minuten auf einem Kreisschüttler (Titra-max 101, Heidolph) bei 750 U/min geschüttelt. Zur Kalibrierung wurde eine 8-Punkt Verdünnungsserie eines Mischstandards jedes Analyten umfassend Konzentrationen von 10.000 µg/L bis 1 ng/L verwendet, der durch serielle Verdünnung einer methanolischen Stammlösung von 1 mg/mL jedes einzelnen Analyten mit ultrareinem Wasser hergestellt worden war. Danach wurden 20 µL einer Mischung der fluoreszenzkodierten, Hapten-gekoppelten Mikropartikel (Mikropartikel) zugesetzt und für weitere 5 min geschüttelt. Um ein Messsignal der gebundenen Antikörper zu erhalten, wurden 100 µL Alexa Fluor™488 Ziege anti-mouse (und anti-Kaninchen) IgG(H+L), je 2 µg/mL Antikörper (dye 2 red-kodierte Partikel), oder Alexa Fluor™647 Ziege anti-Maus (und anti-Kaninchen) IgG(H+L), je 2 µg/ml Antikörper (dye 1 green kodierte Partikel) den Kern/Schale-Partikeln zugesetzt und für 15 min inkubiert.
(§2) Abschließend wurden, um den Assay zu stoppen, 100 µL einer 6%-igen Formaldehyd-Lösung (aus 37% HCHO/10-15% MeOH Stammlösung, (w/w)), 2% MeOH und 0.01% SDS in PBS zugesetzt und für mindestens 10 min inkubiert. Die Mischung jedes Kavität wurde in einem BD Accuri C6 oder BD AccuriC6 plus Durchflusszytometer bei einer Flussrate von 66 µL/min während 30 s analysiert, wobei ein Schwellwert von 80.000 a.u. am FSC Detektor und ein Probeninjektionsport (SIP)- Reinigungszyklus zwischen den einzelnen Durchläufen eingeschoben wurde, um ein Verschleppen (Übertrag) zu verhindern. Standards und Proben wurden zufällig über die Mikrotiterplatte verteilt angeordnet, um einen Einfluss von Signaldrift und Randeffekte möglichst auszuschließen. Zum Testen der Bindungs-Selektivität wurde jeder Antikörper separat mit jedem haptenmodifizierten (d.h. Haptengekoppeltem) Set der verwendeten Kern/Schale-Mikropartikel inkubiert. Die hier als Fixierlösung verwendete Lösung umfasst bevorzugt Formaldehyd im Konzentrationsbereich 1-10 % vol/vol), Methanol (1-10 % vol/vol) und Natriumdodecylsulfat (0,001-10 % m/m). Statt Formaldehyd können auch andere Aldehyde mit quervernetzenden Eigenschaften (z.B. Glyoxal, Glutarladehyd, Malondialdehyd, Dipalaldehyd) eingesetzt werden. Statt Natriumdodecylsulfat können andere Detergenzien (z.B. Tween20, TitronX, Genapol, CTAB) verwendet werden.
(§3) Datenbehandlung: Alle zytometrischen Daten wurden zunächst nach Streuwerten gegated (FSC/SSC (gate "size": vgl. Fig. 2E) um Partikelaggregate von der Berechnung auszuschließen. Danach wurden vier Gates am FSC/FL-4 (dye 2 red kodierte Partikel, Fig. 2F) oder FSC/FL-1 (dye 1 green kodierte Partikel) verwendet, um die Partikel zu dekodieren und die Analyt-bezogene mittlere Fuoreszenzintensität zu berechnen (vgl. Fig. 2G). Mittelwerte und Standardabweichungen von Wiederholungsmessungen wurden gegen die Konzentration der entsprechenden Analyte auf einer logarithmischen Skale abgetragen. Die von Rodbard eingeführte (Rodbard, D. Biometrics 1975, 31, 599-600) Vier-Parameter-Eichkurve wurde nach der Methode der kleinsten Fehlerquadrate mittels Origin® ver. 9 Grafik-Software gefittet. Ausreißer wurden mittels Grubbs Test bei einem SignifikanzNiveau α = 0,05 identifiziert und eliminiert. Welch's t-Test wurde mit einem Signifikanzniveau von α = 0,05 unter Zuhilfenahme von Origin® 9 verwendet. […]

[3] = tested on: anti-CAF Antikörper (mAb); assay: SAFIA (indirect competitive particle-based suspension array fluorescence immunoassay), CAF channel; type: binding, Maus; conditions: for Molare Kreuzreaktivität CAF (SAFIA): method of Abraham, anti-CAF antibody
Protocol: as §1, §2, §3

[4] = tested on: anti-DCF mAb; assay: SAFIA (indirect competitive particle-based suspension array fluorescence immunoassay), DCF channel; type: binding, Maus; conditions: for Molare Kreuzreaktivität DCF (SAFIA): method of Abraham, anti-DCF antibody
Protocol: as §1, §2, §3

[5] = tested on: anti-ILA Antiserum; assay: SAFIA (indirect competitive particle-based suspension array fluorescence immunoassay), ILA channel; type: binding, Kaninchen; conditions: for Molare Kreuzreaktivität ILA (SAFIA): method of Abraham, anti-ILA antiserum
Protocol: as §1, §2, §3

[6] = tested on: anti-CBZ mAb; conditions: anti-CBZ antibody; cited from earlier work
[7] = tested on: anti-CAF Antikörper (mAb); conditions: anti-CAF antibody; cited from earlier work
[8] = tested on: anti-DCF mAb; conditions: anti-DCF antibody; cited from earlier work
[9] = calibration curve, dye 2 red coded particles, Alexa Fluor™488 secondary antibody

Compound	Molare Kreuzreaktivität ILA (ELISA) [1]	Molare Kreuzreaktivität CBZ (SAFIA) [2]	Molare Kreuzreaktivität CAF (SAFIA) [3]	Molare Kreuzreaktivität DCF (SAFIA) [4]	Molare Kreuzreaktivität ILA (SAFIA) [5]	Molare Kreuzreaktivität CBZ (ELISA) [6]	IC50 "Dye 2 Red" [3, 9]	Molare Kreuzreaktivität CAF (ELISA) [7]	IC50 "Dye 2 Red" [4, 9]	Molare Kreuzreaktivität DCF (ELISA) [8] [%]	IC50 "Dye 2 Red" [5, 9]	IC50 "Dye 2 Red" [2, 9]	Molare Kreuzreaktivität CBZ (SAFIA) ([2]; listed as Carbamazepin-10,1-L-epoxid) [%]
C[C@H](CCC(=O)O)[C@H]1CC[C@H]2[C@@H]3[C@H](O)C[C@@H]4C[C@H](O)CC[C@]4(C)[C@H]3C[C@H](O)[C@]12C [Cholsäure]	<0,1%	<0,1%	<0,1%	<0,1%	<0,1%	–	–	–	–	–	–	–	–
NC(=O)N1c2ccccc2C=Cc2ccc(O)cc21 [3-Hydroxycarbamazepin]	–	20,2%	<0,1%	<0,1%	< 0,1%	5,1%	–	–	–	–	–	–	–
O=C(O)COC(=O)Cc1ccccc1Nc1c(Cl)cccc1Cl [Aceclofenac]	–	<0,1%	<0,1%	16,6%	<0,1%	–	–	–	–	–	–	–	–
Cn1c(=O)c2c(ncn2C)n(C)c1=O [CAF, Coffein]	–	<0,1%	100%	<0,1%	< 0,1%	–	1,72 ± 0,16 µg/L	100%	–	–	–	–	–
O=C(O)Cc1ccccc1Nc1c(Cl)cccc1Cl [DCF, Diclofenac]	–	<0,1%	<0,1%	100%	< 0,1%	–	–	–	0,05 ± 0,02 µg/L	100	–	–	–
C[C@H](CCC(=O)O)[C@H]1CC[C@H]2[C@@H]3CC[C@@H]4C[C@@H](O)CC[C@]4(C)[C@H]3CC[C@]12C [ILA, Isolithocholsäure]	100%	<0,1%	<0,1%	<0,1%	100%	–	–	–	–	–	1,39 ± 0,72 µg/L	–	–
NC(=O)N1c2ccccc2C=Cc2ccccc21 [CBZ, Carbamazepin]	–	100%	<0,1%	<0,1%	< 0,1%	100%	–	–	–	–	–	1,13 ± 0,07 µg/L	–
O=C(O)Cc1ccccc1Nc1c(Cl)cc(O)cc1Cl [4'-Hydroxydiclofenac]	–	<0,1%	<0,1%	<0,1%	<0,1%	–	–	–	–	11	–	–	–
Cn1cnc2c1c(=O)[nH]c(=O)n2C [Theobromin]	–	<0,1%	2,0%	<0,1%	<0,1%	–	–	0,13%	–	–	–	–	–
O=C(O)Cc1cc(O)ccc1Nc1c(Cl)cccc1Cl [5'-Hydroxydiclofenac]	–	<0,1%	<0,1%	9,8%	<0,1%	–	–	–	–	13	–	–	–
Cn1c(=O)[nH]c2ncn(C)c2c1=O [Paraxanthin]	–	<0,1%	<0,1%	<0,1%	<0,1%	–	–	<0,1%	–	–	–	–	–
NC(=O)N1c2ccccc2C(O)C(O)c2ccccc21 (centres unmarked) [10,11-Dihydroxy-carbamazepin]	–	0,3%	<0,1%	< 0,1%	–	0,1%	–	–	–	–	–	–	–
C[C@H](CCC(=O)O)[C@H]1CC[C@H]2[C@@H]3CC[C@@H]4C[C@H](O)CC[C@]4(C)[C@H]3CC[C@]12C [Lithocholsäure]	0,3%	<0,1%	<0,1%	<0,1%	1,9%	–	–	–	–	–	–	–	–
C[C@H](CCC(=O)NCCS(=O)(=O)O)[C@H]1CC[C@H]2[C@@H]3CC[C@@H]4C[C@H](O)CC[C@]4(C)[C@H]3CC[C@]12C [Taurolithocholsäure]	1,2%	<0,1%	<0,1%	<0,1%	<0,1%	–	–	–	–	–	–	–	–
Cn1c(=O)c2[nH]cnc2n(C)c1=O [Theophyllin]	–	<0,1%	5,8%	<0,1%	<0,1%	–	–	12,0%	–	–	–	–	–
NC(=O)N1c2ccccc2C2OC2c2ccccc21 (centres unmarked) [10,11-Epoxycarbamazepin]	–	117%	<0,1%	<0,1%	< 0,1%	140%	–	–	–	–	–	–	118
